“Also recorded” adds a separate entry of the source. Read-outs that look alike come from different tables or passages of the source.
How the values were obtained:
[1] = system: HIV-1 NL4-3 AMD3100-resistant; assay type: cell-based; conditions: for cross-resistance of NL4-3 AMD3100-resistant virus: relative to NL4-3
[2] = biological target: T1, CXCR4 (Homo sapiens, UniProt P61073); assay: Inhibition of anti-CXCR4 mAb (12G5) binding, flow cytometry, PHA-activated PBMC; set-up: endogenous in cells; conditions: for IC50: read-out: IC50-12G5 PMBC
T1 sequence (P61073 whole entry): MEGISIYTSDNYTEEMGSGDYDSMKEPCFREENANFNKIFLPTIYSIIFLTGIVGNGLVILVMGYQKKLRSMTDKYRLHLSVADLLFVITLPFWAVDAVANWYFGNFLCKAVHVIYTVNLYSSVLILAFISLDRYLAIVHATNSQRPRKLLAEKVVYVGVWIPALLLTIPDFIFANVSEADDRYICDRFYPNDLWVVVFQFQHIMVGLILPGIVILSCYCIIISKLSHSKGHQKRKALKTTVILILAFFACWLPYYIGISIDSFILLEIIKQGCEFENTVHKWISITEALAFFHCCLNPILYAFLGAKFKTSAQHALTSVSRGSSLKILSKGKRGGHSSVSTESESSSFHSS
Procedure: (§1) Measurement of chemokine receptors CXCR4, CCR5 and the CD4 receptor on phytohemagglutinin (PHA)-activated PBMC was performed by flow cytometry analysis. Briefly, 0.5×10^6 cells were washed in ice-cold phosphate-buffered saline (PBS) and incubated for 30 minutes at 4÷C. with fluorescent labelled mAb 12G5 and 2D7 and Leu3a (Becton Dickinson, San Jose, Calif.) or with isotype control mAbs in the presence or absence of the test compound. Then, the cells were washed with ice-cold PBS and were fixed in PBS containing 1% formaldehyde. For each sample, 10,000 events were analysed in a FACScalibur™ system (Becton Dickinson). Data were acquired and analysed with CellQuest™ software (Becton Dickinson).

[3] = system: HIV-1 RF; assay: Anti-HIV assay, MTT; assay type: cell-based
[4] = biological target: CCR5 (Homo sapiens, UniProt P51681); assay: RANTES-induced intracellular calcium signal in THP-1, CCR5+ cells; conditions: data not shown
Chain of CCR5 (P51681 whole entry): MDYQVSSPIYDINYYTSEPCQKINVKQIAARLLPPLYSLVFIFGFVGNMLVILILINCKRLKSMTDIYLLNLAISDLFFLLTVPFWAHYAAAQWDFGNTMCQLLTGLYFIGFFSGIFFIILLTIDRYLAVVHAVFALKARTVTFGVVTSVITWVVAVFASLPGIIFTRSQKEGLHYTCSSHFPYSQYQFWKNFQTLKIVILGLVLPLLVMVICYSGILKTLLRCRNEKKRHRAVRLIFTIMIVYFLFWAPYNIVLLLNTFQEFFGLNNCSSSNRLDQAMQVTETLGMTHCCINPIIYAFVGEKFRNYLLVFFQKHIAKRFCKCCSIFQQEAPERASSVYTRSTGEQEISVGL

[5] = system: TAR RNA; assay: L-arginine-Amberlite affinity column elution of TAR RNA; assay type: binding, HIV-1; conditions: concentration that elutes 50% of TAR RNA from L-arginine-Amberlite affinity column
[6] = biological target: T1, CXCR4; conditions: SDF-1α 20 ng/ml
[7] = biological target: T1, CXCR4; assay: Inhibition of anti-CXCR4 mAb (12G5) binding, flow cytometry, SUP-T1 cells; set-up: endogenous in cells; conditions: for affinity for CXCR4: inhibition of 12G5 binding to SUP-T1 cells or PMBC
Procedure: as §1

[8] = system: HIV-1 AZT-resistant clinical isolate AOM; assay: Anti-HIV assay, MTT; assay type: cell-based
[9] = system: HIV-1 Ba-L; assay: Anti-HIV assay, β-galactosidase activity in P4-CCR5 MAGI cells; assay type: cell-based
Procedure: The HIV-1 strains NL4-3 and Ba-L and the CD4^+lymphocytic cell lines SUP-T1, MT-4 and MT-2 and P4-CCR5 MAGI cells were obtained from the MRC AIDS reagent program or the NIH, AIDS Research and Reference Reagent Program.
The cells were infected by incubation with different titers of the HIV-1 strains for 2 hrs at 37° C. in the presence or absence of the AAC of the invention. Then the cells were washed from the virus by centrifugation at 400 g and the supernatants were discarded. The cells were resuspended in culture medium, supplemented with different concentrations of the test compounds. The cells were allowed to proliferate for 5 days, the number of viable cells was quantified by a tetrazolium-based colorimetric method (CellTiter 96® AQueous One solution Cell Proliferation Assay, Promega). Anti-HIV activity in P4-CCR5 MAGI cells was done as follows: cells (1×10^5/ml) were infected with 10 ng/ml of p24 antigen of HIV-1 Ba-L in the presence of varying concentrations of the test compound. 24 hours post infection, cells were washed twice with PBS and resuspended in the medium containing the appropriate drug concentration. Five days after infection the cells were washed with PBS and evaluated for β-galactosidase activity.

[10] = system: rG15, rG15-rC15 duplex and truncated TAR RNA sequences; assay: Gel-shift binding to short RNA oligonucleotides (specificity); conditions: micromolar concentration range; data not shown
[11] = MTT assay, read-out: EC50 HIV-1 RF

Row | Compound | EC50 ([1]; MTT assay, read-out: EC50 HIV-1 AMD 3100res) [µM] | cross-resistance of NL4-3 AMD3100-resistant virus [1] [fold] | binding of 12G5 mAb to PHA-activated PBMC ([2]; 5 μM) | IC50 [2] [µM] | EC50 [3, 11] [µM] | EC50 ([3]; range over HIV-1 RF strain, AOM clinical isolate and M-tropic Ba-L strain, read-out: EC50) [µM] | intracellular Ca2+ signal induced by RANTES [4] | CE50 [5] [mM] | SDF-1α-dependent Ca2+ signal [6] | IC50 [7] [µM] | affinity for CXCR4 [7] | EC50 [8] [µM] | EC50 [9] [µM] | binding to short RNA oligonucleotides [10]
1 | Triargininamido-gentamicin conjugate [R3G] | > 133 | > 9 | suppressed | 2.7 | 35 | 16 to 35 | did not inhibit | 1.4 | inhibited; also recorded: blocked | 7.7 | high affinity | 16 | 29 | did not display any binding
2 | N=C(N)NCCCC(N)C(=O)NCC1OC(OC2C(NC(=O)C(N)CCCNC(=N)N)CC(NC(=O)C(N)CCCNC(=N)N)C(OC3OC(CO)C(O)C(NC(=O)C(N)CCCNC(=N)N)C3O)C2O)C(O)C(O)C1O (stereo not shown) [R4K, Tetraargininamido-kanamycin A conjugate] | – | > 4 | – | 2.2 | > 113 | – | did not inhibit | 2.5 | inhibited; also recorded: blocked | 3.7 | high affinity | 67 | > 113 | did not display any binding
